{
  "source": "patent US8546611B2",
  "about": "(priority 2008, dated 2013)",
  "key": {"white rat females": {"tested_on": "white rat females", "settings": "female, in vivo, 5000 mg/kg"}, "[1]": {"tested_on": "patients with cardiac insufficiency", "protocol": "The test for cardiotonic activity of product samples was performed by measuring the dynamics of alteration of the functional class of cardiac failure. The functional class can be determined quite accurately by analyzing the everyday life activities according to a specific activity scale. The authors of this technique suppose that the criteria developed by NYHA (New York Heart Association) cannot provide accurate determination of functional class, since widely used terms, such as “everyday physical activity”, “sub-everyday activity” are not specific. On the basis of multiple tests, in which patients exercised on a treadmill, the authors calculated a scale of metabolic expenses for each kind of life activity (see Goldman L., Hashimoto B., Cook F. et al., Comparative reproducibility and validity of systems for assessing cardiovascular functional class: advantages of a new specific activity scale (1981) Circulation 64 (6):1227-34). This inquiry is designed to be used by medical personnel, interviewing a patient. After calculating the sum of possible energy expenses, the functional class of the patient is determined according to the summary criteria of the specific activity scale (Table 6).\nIn the tests, the patient groups were formed so that the people of the same functional class were equally distributed among different groups. Severe patients (of IV functional class; those having oncological diseases or suffered myocardial infarction/stroke to the brain 60 days or less before) were not admitted to the tests. The distribution of patients among groups was governed by a random number generator. The tests were carried out by the following protocol. Each patient took 100 mg of the preparation twice per day (in the morning and after lunch) during 3 months—against the background of a standard therapy administered by a physician. […] All the samples and placebo were encoded before sending into the clinic, so none of those involved into the tests (patients, physicians, medical personnel and the manager of tests) was aware of the nature of samples.\nThe functional class of patients was determined several times: at the beginning of tests (before the formation of test groups) and after 30, 60 and 90 days of treatment with the test samples. The estimation was performed on the basis of the activity scale (Table 7)."}, "[2]": {"tested_on": "erythroid cells isolated from the bone marrow of gamma-irradiated laboratory mice males", "assay": "Radioprotective properties (micronucleus test after gamma irradiation)"}, "Wistar rat males": {"tested_on": "Wistar rat males", "protocol": "Examples, illustrating the method invented, are presented below. […] SA is tested on rats endured an immobilization stress; the parameter tested is lymphocytic composition of blood, which is determined before and after stress in a blood smear taken from the caudal vein. […] A detailed description of the testing technique is given in Example 13.\nThe animals were fixed while lying flat on their back, with their legs secured. […] Blood was taken from the caudal vein: 10 μl for counting blood corpuscles and 20 μl for preparing a smear with its subsequent staining by Romanovsky-Giemsa).\nFirst group: 10 min prior immobilization, the animals were injected (perorally, with the help of a stomach pump) with 1.5 ml of 1% starch solution. […] Blood was taken from the caudal vein at the moment of immobilization and 6 hours later, and stained blood smears were prepared to calculate the leukogram."}, "[3]": {"tested_on": "erythroid cells isolated from the bone marrow of laboratory mice males", "settings": "feed with succinic acid 20 mg/kg body wt., not irradiated, norm 5.0±1.0, listed as “Natural acid”", "protocol": "The test for genotoxicity was performed on young laboratory mice males (18-20 g; 6 animals in each group). […] The control animals were given water."}, "[4]": {"settings": "100 mg twice per day with standard therapy, after 30 days"}, "[5]": {"settings": "100 mg twice per day with standard therapy, after 60 days"}, "[6]": {"settings": "100 mg twice per day with standard therapy, after 90 days"}, "[7]": {"settings": "100 mg twice per day, 3 months, with standard therapy, before treatment"}, "[8]": {"settings": "6 h after immobilization, 1.5 ml of 1% succinic acid perorally 10 min prior"}, "[9]": {"settings": "at the moment of immobilization, 1.5 ml of 1% succinic acid perorally 10 min prior"}},
  "data": [
    {"smiles": "O=C(O)CCC(=O)O", "note": "[“Natural” SA, succinic acid, reference compound]", "values": [
      {"measurement": "died, 13 day", "setting": "white rat females; 13 day", "value": 1},
      {"measurement": "died, 14 day", "setting": "white rat females; 14 day", "value": 2},
      {"measurement": "Total died", "setting": "white rat females; 14 days", "value": 3},
      {"measurement": "patients of functional class I, day 30", "setting": "[1]; [4]", "value": 10},
      {"measurement": "patients of functional class II, day 30", "setting": "[1]; [4]", "value": 6},
      {"measurement": "patients of functional class III, day 30", "setting": "[1]; [4]", "value": 4},
      {"measurement": "patients of functional class IV, day 30", "setting": "[1]; [4]", "value": 0},
      {"measurement": "patients of functional class I, day 60", "setting": "[1]; [5]", "value": 9},
      {"measurement": "patients of functional class II, day 60", "setting": "[1]; [5]", "value": 8},
      {"measurement": "patients of functional class III, day 60", "setting": "[1]; [5]", "value": 3},
      {"measurement": "patients of functional class IV, day 60", "setting": "[1]; [5]", "value": 0},
      {"measurement": "patients of functional class I, day 90", "setting": "[1]; [6]", "value": 14},
      {"measurement": "patients of functional class II, day 90", "setting": "[1]; [6]", "value": 5},
      {"measurement": "patients of functional class III, day 90", "setting": "[1]; [6]", "value": 1},
      {"measurement": "patients of functional class IV, day 90", "setting": "[1]; [6]", "value": 0},
      {"measurement": "patients of functional class I, day 0", "setting": "[1]; [7]", "value": 8},
      {"measurement": "patients of functional class II, day 0", "setting": "[1]; [7]", "value": 7},
      {"measurement": "patients of functional class III, day 0", "setting": "[1]; [7]", "value": 4},
      {"measurement": "patients of functional class IV, day 0", "setting": "[1]; [7]", "value": 0},
      {"measurement": "cardiotonic properties / dynamics of functional class, conclusion in words", "setting": "[1]; 100 mg twice per day, 3 months, listed as “natural” acid", "value": "high cardiotonic properties"},
      {"measurement": "radioprotective effect, conclusion in words", "setting": "[2]; gamma rays 1.3 Gy, 20 mg/kg body wt., 48 h, 20 mg/kg", "value": "evident radioprotectors"},
      {"measurement": "Number of micronuclei per 2000 cells (radioprotective properties)", "setting": "[2]; mice irradiated with gamma rays 1.3 Gy, then fed 48 h succinic acid 20 mg/kg body wt., critical value 16±2, listed as “Natural acid”", "value": "12.0 ± 1.6"},
      {"measurement": "adaptogenic properties, conclusion in words", "setting": "Wistar rat males; 6-hour immobilization stress, Wistar rats, listed as “natural” acid", "value": "evident adaptogens"},
      {"measurement": "Eosinophils, 6 h after", "setting": "Wistar rat males; [8]", "value": "1.5 ± 3", "unit": "%"},
      {"measurement": "Lymphocytes, 6 h after", "setting": "Wistar rat males; [8]", "value": "74 ± 4", "unit": "%"},
      {"measurement": "Number of leukocytes in 1 μl of blood, 6 h after", "setting": "Wistar rat males; [8]", "value": 7100},
      {"measurement": "Segmentated cells, 6 h after", "setting": "Wistar rat males; [8]", "value": "25 ± 3", "unit": "%"},
      {"measurement": "Eosinophils, before", "setting": "Wistar rat males; [9]", "value": "2 ± 4", "unit": "%"},
      {"measurement": "Lymphocytes, before", "setting": "Wistar rat males; [9]", "value": "75 ± 4", "unit": "%"},
      {"measurement": "Number of leukocytes in 1 μl of blood, before", "setting": "Wistar rat males; [9]", "value": 5900},
      {"measurement": "Segmentated cells, before", "setting": "Wistar rat males; [9]", "value": "23 ± 2", "unit": "%"},
      {"measurement": "Number of micronuclei per 2000 cells (genotoxicity)", "setting": "[3]", "value": "5.0 ± 1.0"}
    ]}
  ]
}
